Common to all, as to assay type: cell-based
Assay [1] addresses T1, PUP1 nuclear base transporter (Arabidopsis thaliana, UniProt Q9FZ96).
T1 construct: The PUP1 protein expressed by the yeast strain MG887ura3^−::pFL61-PUP1; expressed in transfected cells; host or cells: Saccharomyces cerevisiae MG887ura3- (fcy2), plasmid pFL61-PUP1
Nature of the assay: Uptake of radioactively labelled adenine and cytosine by yeast strain MG887ura3-::pFL61-PUP1. Conditions: initial concentration medium 200 μM; intracellular, cell volume estimated as four times the dry weight. Here is the method: (§1) For measuring the rate of uptake the yeast strains MG887ura3^−::pFL61, MG887ura3^−::pFL61-PUP1 and their original strain Σ1278b (Dubois & Grenson, 1979, Mol. Gen. Genet. 175, 67–76) were cultured in complete medium (YPD) without uracil and with 2% glucose as carbon source up to an OD600 of 0.6 at 28° C. The cells were harvested at 3000 g, washed twice with water and brought to an OD600 of 12 with sodium phosphate buffer (100 mM, pH 4.5), 1% glucose. The cell suspension was stored in 100 μl portions on ice up to the beginning of the uptake measurements. Before the start of the uptake measurements the cells were pre-incubated at 30° C. for 2 minutes. The reaction was then started, by which 100 μl of radioactively labelled substrate solution was added to 100 μl cell suspension. The reaction mixture was incubated at 30° C. and after 30, 60, 120 and 180 seconds in each case 50 μl of suspension was withdrawn and placed in 4 ml of ice-cold water (in measurements over 180 seconds more cell suspension and substrate solution were correspondingly added). The cells were absorbed on to glass fibre filters and washed with 4 ml of ice-cold water. The radioactivity on the filters was finally ascertained in a liquid scintillation counter.
(§2) Substrate solution: For the substrate solution what is concerned is a 100 mM sodium phosphate buffer pH 4.5 with 1% glucose and 9.25 Bq/μl of radioactively labelled substrate (25–100 μM [^14C] adenine or [^14C] cytosine). In addition the substrate solution contains the unlabelled substrate, possible inhibitors and competitors in double end-concentration. For estimation of the optimum pH the pH value of the sodium phosphate buffer is also changed. When the influence of glucose on the uptake rate is measured neither the cell suspension nor the substrate solution contains glucose. Glucose is only added after starting the uptake measurements at the commencement of measuring at an end-concentration of 1%.
(§3) In Table 1 the uptake of radioactively labelled adenine and cytosine mediated by the PUP1 nuclear base transporter is indicated by the yeast strain MG887ura3^−::pFL61-PUP1. For calculation of the intracellular concentration the cell volume is estimated as four times the dry weight (Ninnemann et al., 1994, EMBO J. 15, 3464–3471). The uptake occurs against a concentration gradient.

The target of assay [2] is T2, PUP1 nuclear base transporter (Arabidopsis thaliana, UniProt Q9FZ96, S63G).
T2 construct: The PUP1 protein expressed by the yeast strain MG887ura3^−::pFL61-PUP1; expressed in transfected cells; host or cells: Saccharomyces cerevisiae MG887ura3- (fcy2), plasmid pFL61-PUP1
T2 sequence (Q9FZ96 whole entry S63G): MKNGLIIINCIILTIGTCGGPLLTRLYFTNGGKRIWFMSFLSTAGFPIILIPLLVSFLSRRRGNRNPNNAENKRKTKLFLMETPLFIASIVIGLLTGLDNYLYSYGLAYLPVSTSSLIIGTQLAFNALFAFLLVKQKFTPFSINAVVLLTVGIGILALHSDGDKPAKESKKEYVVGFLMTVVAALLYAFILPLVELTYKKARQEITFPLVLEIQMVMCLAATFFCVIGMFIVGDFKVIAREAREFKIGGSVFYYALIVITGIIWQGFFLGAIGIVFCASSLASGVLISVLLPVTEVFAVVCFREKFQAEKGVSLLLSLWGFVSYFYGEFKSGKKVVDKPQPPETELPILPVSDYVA
The assay is described as above. Here is the method: as §1, §2, §3

For another assay, the target named is T3, FCY2 transporter (Saccharomyces cerevisiae, UniProt P17064).
T3 construct: in comparison to the yeast's own FCY2 transporter; endogenous in cells
T3 sequence (P17064 1-533): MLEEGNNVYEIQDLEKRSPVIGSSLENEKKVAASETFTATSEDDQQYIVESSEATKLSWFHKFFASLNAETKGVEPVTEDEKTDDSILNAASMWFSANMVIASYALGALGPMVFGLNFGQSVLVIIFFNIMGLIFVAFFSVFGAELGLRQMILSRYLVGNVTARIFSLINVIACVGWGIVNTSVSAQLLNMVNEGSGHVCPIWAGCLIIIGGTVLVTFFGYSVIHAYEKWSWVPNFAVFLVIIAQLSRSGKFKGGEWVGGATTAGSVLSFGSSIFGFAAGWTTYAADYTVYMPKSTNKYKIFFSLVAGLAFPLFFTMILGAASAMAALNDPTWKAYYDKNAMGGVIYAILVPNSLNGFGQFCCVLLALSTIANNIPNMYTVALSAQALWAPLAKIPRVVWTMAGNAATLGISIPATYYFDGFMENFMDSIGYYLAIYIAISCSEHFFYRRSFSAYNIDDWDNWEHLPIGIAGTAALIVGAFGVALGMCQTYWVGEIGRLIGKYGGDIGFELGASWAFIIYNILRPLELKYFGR
Nature of the assay: Adenine uptake by the yeast's own FCY2 transporter (competition experiment reference). Conditions: substrate concentration 25 μM. Here is the method: as §1, with “The reaction mixture was incubated at 30° C. and after 30, 60, 120 and 180 seconds in each case 50 μl of suspension was withdrawn and placed in 4 ml of ice-cold water (in measurements over 180 seconds more cell suspension and substrate solution were correspondingly added). The cells were absorbed on to glass fibre filters and washed with 4 ml of ice-cold water.” left out
Substrate solution: For the substrate solution what is concerned is a 100 mM sodium phosphate buffer pH 4.5 with 1% glucose and 9.25 Bq/μl of radioactively labelled substrate (25–100 μM [^14C] adenine or [^14C] cytosine). […] When the influence of glucose on the uptake rate is measured neither the cell suspension nor the substrate solution contains glucose. […]

Another assay has as its target T4, PUP2 (Arabidopsis thaliana, UniProt Q94GB1).
T4 construct: expressed in transfected cells; host or cells: Saccharomyces cerevisiae (inferred)
T4 sequence (Q94GB1 1-347 isoform Q94GB1-2): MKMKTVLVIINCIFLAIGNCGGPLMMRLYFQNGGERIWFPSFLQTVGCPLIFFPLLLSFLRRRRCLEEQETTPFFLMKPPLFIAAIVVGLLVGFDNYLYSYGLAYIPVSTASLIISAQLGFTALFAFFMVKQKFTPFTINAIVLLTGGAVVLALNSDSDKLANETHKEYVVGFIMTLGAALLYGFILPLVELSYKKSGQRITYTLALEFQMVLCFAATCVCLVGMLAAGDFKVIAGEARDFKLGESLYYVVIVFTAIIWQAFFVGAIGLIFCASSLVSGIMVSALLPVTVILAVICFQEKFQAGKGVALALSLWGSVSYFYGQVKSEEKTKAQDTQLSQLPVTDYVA
Nature of the assay: Adenine transport by PUP2. Here is the method: as §2

Another assay addresses PUP1 (Arabidopsis thaliana, UniProt Q9FZ96, S63G). Nature of the assay: Voltage and current measurement in Xenopus oocytes expressing PUP1. Details: a primer was used which demolishes the STOP codon of PUP1 and simultaneously inserts a NotI excision site; expressed in transfected cells; host or cells: Xenopus oocytes injected with in vitro transcribed RNA. Here is the method: The one-way directed currents are measured as soon as adenine is added. The current strength is dependent on the concentration (bars indicate the current on the ordinate and the time on the abscissa).
The cDNA for PUP1 was excised with NotI and cloned in an oocyte expression vector containing untranslated 5′ and 3′ regions of the β-globin from Xenopus. The cDNA was then replicated by means of PCR. SP6 (from the oocyte vector) was used as upstream primer, as downstream primer a primer was used which demolishes the STOP codon of PUP1 and simultaneously inserts a NotI excision site. This PCR fragment was excised by NotI and HindIII and ligated into an oocyte expression vector which in addition contains behind the NotI excision site the gene for GFP (“green fluorescent protein” from the jellyfish). In that way an open reading-frame is constructed for a fusion protein from PUP1 and GFP. By insertion of the NotI excision site a linker with three base pairs coding for alanine is constructed. The plasmid was linearized with MIuI, and RNA was transcribed in vitro by means of SP6 polymerase and absorbed into water to about 1 ng/nl. Each oocyte (ripening stage 5 to 6) was injected with 50 nl. […]
For voltage measurement a glass electrode filled with 3M KCl was stuck into the oocyte. With a Dagan amplifier the potential was measured relative to the reference electrode. […]

The values below come from patent US7179954B1, “Isolated nucleic acids coding for a nuclear base transporter and uses thereof” (Carnegie Insitution of Washington, priority 1999, dated 2007).

PUP1, sequence (Q9FZ96 whole entry S63G): as the sequence (Q9FZ96 whole entry S63G) above
T1 sequence (Q9FZ96 whole entry S63G): as the sequence (Q9FZ96 whole entry S63G) above

Regarding `Nc1ncnc2nc[nH]c12` [Adenine, adenine], in assay [1], the “End conc Cells” value was 2350 µM. The Enrichment factor in assay [2] (cells versus medium, initial concentration medium 200 μM) was found to be 15. In addition, the “End conc. Medium” value in assay [2] (initial concentration medium 200 μM, yeast strain MG887ura3-::pFL61-PUP1) is 155 µM. Also, the “Uptake of radioactively labelled adenine (set at 100%)” value in assay [2] (substrate concentration 25 μM, PUP1 expressed in yeast) is 1.7 nmol.min^−1 .mg^−1 dry weight; at FCY2 transporter it was 0.9 nmol.min^−1 .mg^−1 dry weight. The “Transport by PUP2” value at PUP2 was “in a position to transport adenine”. In addition, at PUP1 (adenine in the bath solution, resting potential about -30 mV at pH 7.3), the “Effect on oocyte membrane potential” value is “provokes depolarization of the oocyte”. The Effect on current result on PUP1 (oocytes held at a voltage of -80 mV) is reported as “induces a current in one direction”.
